Test results taken from patent US11833137B2, “Substituted chromenones, IRE1 inhibitors, and methods of using same” (The Wistar Institute, priority 2018, dated 2023).

How the values were obtained:
[1] = tested on: XBP-1s expression, 5TGM1 cells; experiment: XBP-1s immunoblot in 5TGM1 multiple myeloma cells; assay type: cell-based, mouse
Protocol: 5TGM1 mouse multiple myeloma cells, primary mouse B cells, primary mouse Eμ-TCL1 CLL cells, and human CLL cell lines (MEC2 and WaC3) were cultured at 37° C. in a 5% CO2 incubator using RPMI 1640 media (Gibco) supplemented with 10% heat-inactivated FBS, 2 mM L-glutamine, 100 U/mL penicillin G sodium, 1 mM sodium pyruvate, 0.1 mM non-essential amino acids, 100 μg/mL streptomycin sulfate and 0.1 mM β-mercaptoethanol (β-ME).
Cells were lysed using RIPA buffer (10 mM Tris-HCl, pH 7.4, 150 mM NaCl, 1% NP-40, 0.5% sodium deoxycholate, 0.1% SDS, and 1 mM EDTA) supplemented with protease inhibitors (Roche). Protein concentrations were determined by BCA assays (Pierce).
Samples were boiled in SDS-PAGE sample buffer (62.5 mM Tris-HCl, pH 6.8, 2% SDS, 10% glycerol, 0.1% bromophenol blue) with β-ME and analyzed by SDS-PAGE. Proteins were transferred to nitrocellulose membranes, blocked in 5% nonfat milk (wt/vol in PBS), and immunoblotted with indicated primary antibodies and appropriate horseradish peroxidase-conjugated secondary antibodies. Immunoblots were developed using Western Lighting Chemiluminescence Reagent (PerkinElmer).
To develop inhibitors with improved potency to target the IRE1/XBP-1 pathway, tricyclic chromenone-based IRE1 RNase inhibitors with different amine group (R^1) were synthesized and compared: allyloxycarbonyl (alloc) in B-H09 (1), —H in C-B06 (2), and —CH3 in C-D06 (3) (FIG. 1A). 5TGM1 multiple myeloma cells were chosen to evaluate inhibitory effects of these inhibitors because they have constitutively activated IRE1/XBP-1 pathways.

[2] = tested on: 5TGM1 cells; experiment: Cell proliferation XTT assay, 5TGM1; assay type: cell-based, mouse; settings: 20 μM for a course of 3 days
Protocol: 5TGM1 cells were suspended in phenol red-free RPMI media, seeded in 96-well cell culture plates, and treated with indicated IRE1 inhibitors (20 μM, unless indicated otherwise). At indicated time points, cells were spun down and cell proliferation was assessed by XTT assays (Roche) according to the manufacturer's instructions. Briefly, 50 μl XTT labeling reagent, 1 μl electron-coupling reagent, and 100 μl phenol red-free RPMI media were combined and applied to each well of the 96-well plates. Cells were incubated for 4 h in a CO2 incubator to allow for the yellow tetrazolium salt XTT to be cleaved by mitochondrial dehydrogenases of metabolically active cells to form the orange formazan dye, which can be quantified at 492 nm using a BioTek SYNERGY™ NEO2 Multimode Reader.

[3] = tested on: CD11b+/Ly6G+ granulocytic MDSCs; experiment: MDSC-mediated T cell suppression assay; assay type: in vivo, mouse; settings: OT-I splenocytes, OVA peptide
Protocol: FIGS. 24A-24J illustrate the finding that targeting XBP-1s in CLL cells of MD4^+/−/Eμ-TCL1^+/+ mice leads to reduced production of sIgM, and decreased numbers and function of granulocytic MDSCs. […]. Gated CD11c−/CD11b+ populations were analyzed for Ly6C^intermediate/Ly6G+ granulocytic MDSCs and Ly6C+/Ly6G− monocytic MDSCs. (FIG. 24C) Percentages of CD11b+ myeloid cells in the blood of MD4^+/−/Eμ-TCL1^+/+ and XBP-1^KO/MD4^+/−/Eμ-TCL1^+/+ mice were plotted as mean±SEM. (FIG. 24D) Percentages of CD11b+/Ly6C^intermediate/Ly6G+ granulocytic MDSCs in the blood of MD4^+/−/Eμ-TCL1^+/+ and XBP-1^KO/MD4^+/−/Eμ-TCL1^+/+ mice were plotted as mean±SEM. […] Gated CD11b+/Ly6C^intermediate/Ly6G+ granulocytic MDSCs were analyzed for the expression of Arg-1. (FIG. 24F) Mean fluorescence intensity (MFI) of Arg-1 in gated CD11b+/Ly6C^intermediate/Ly6G+ granulocytic MDSCs from spleens of 5 MD4^+/−/Eμ-TCL1^+/+ and 5 XBP-1^KO/MD4^+/−/Eμ-TCL1^+/+ mice was plotted as mean±SEM. […] The ^3H-thymidine uptake was measured, and the percentages of proliferation were calculated by comparing to the positive control and plotted as mean±SEM. […] The percentage of CLL cells in PBMCs for each mouse was determined by flow cytofluorometry on day 6 and day 13, and compared with the CLL burden data of the mouse on day 0 (100%). […]

In the case of O=c1oc2c(C3OCCCO3)c(O)ccc2c2c1CNCC2 [Compound 4, 7-(1,3-dioxan-2-yl)-8-hydroxy-1,2,3,4-tetrahydro-5H-chromeno[3,4-c]pyridin-5-one], the “suppression of XBP-1s expression, long term” value ([1]; 10 μM for a course of 3 days) was “continuously suppressed even after 3-day treatment”, the “concentration that effectively blocks XBP-1s expression” value ([1]; 24 h) was 5 µM and the “suppression of XBP-1s expression” value ([1]; 24 h, at 5 μM) was “more potent than 5”. For the same compound, the “growth inhibition / cytotoxicity (XTT)” value [2] was “more potent than their respective aldehyde counterparts” and the “suppression of T cell proliferation by MDSCs from injected mice” value [3] was “lost their immunosuppressive function”.
